#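 These data come from cells grown in 96-well plates and exposed to compound for 48 hours at five concentrations. GI50 marks 50% less growth. The concentration for full growth arrest is given as TGI.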
# System: HCT-15 colon
# Assay: NCI-60 cell line screen, 48 h
SMILES,GI50,TGI
CSC1=Nc2c(c(C)c(C)n2COC(CO)CO)C2=NC(=O)C(C)N12 (configuration not stated),> 100 µM,> 100 µM
COc1cccc(CCNC(=O)Cc2ccccc2CCO)c1,–,> 100 µM
CCOC(=O)C1=CN(C)C=C(C(=O)OCC)C1c1cc(Br)c(OCC)c(OC)c1,> 100 µM,> 100 µM
N#Cc1c(N)nc(N2CCOCC2)c(C#N)c1-c1ccncc1,> 100 µM,> 100 µM

# System: M14 melanoma
# Assay: NCI-60 cell line screen, 48 h
SMILES,TGI,GI50
COc1cccc(CCNC(=O)Cc2ccccc2CCO)c1,> 100 µM,–
CCOC(=O)C1=CN(C)C=C(C(=O)OCC)C1c1cc(Br)c(OCC)c(OC)c1,> 100 µM,> 100 µM
N#Cc1c(N)nc(N2CCOCC2)c(C#N)c1-c1ccncc1,> 100 µM,> 100 µM

# System: MCF7 breast
# Assay: NCI-60 cell line screen, 48 h
SMILES,GI50,TGI
CSC1=Nc2c(c(C)c(C)n2COC(CO)CO)C2=NC(=O)C(C)N12 (configuration not stated),> 100 µM,> 100 µM
COc1cccc(CCNC(=O)Cc2ccccc2CCO)c1,–,> 100 µM
CCOC(=O)C1=CN(C)C=C(C(=O)OCC)C1c1cc(Br)c(OCC)c(OC)c1,32 µM,> 100 µM
N#Cc1c(N)nc(N2CCOCC2)c(C#N)c1-c1ccncc1,34.5 µM,> 100 µM

# System: BT-549 breast
# Assay: NCI-60 cell line screen, 48 h
SMILES,GI50,TGI
CSC1=Nc2c(c(C)c(C)n2COC(CO)CO)C2=NC(=O)C(C)N12 (configuration not stated),> 100 µM,> 100 µM
COc1cccc(CCNC(=O)Cc2ccccc2CCO)c1,–,> 100 µM
CCOC(=O)C1=CN(C)C=C(C(=O)OCC)C1c1cc(Br)c(OCC)c(OC)c1,> 100 µM,> 100 µM
N#Cc1c(N)nc(N2CCOCC2)c(C#N)c1-c1ccncc1,95.8 µM,> 100 µM

# System: IGROV1 ovarian
# Assay: NCI-60 cell line screen, 48 h
SMILES,GI50,TGI
CSC1=Nc2c(c(C)c(C)n2COC(CO)CO)C2=NC(=O)C(C)N12 (configuration not stated),39.6 µM,> 100 µM
COc1cccc(CCNC(=O)Cc2ccccc2CCO)c1,–,> 100 µM
CCOC(=O)C1=CN(C)C=C(C(=O)OCC)C1c1cc(Br)c(OCC)c(OC)c1,> 100 µM,> 100 µM
N#Cc1c(N)nc(N2CCOCC2)c(C#N)c1-c1ccncc1,12.3 µM,39.5 µM

# System: NCI-H522 lung
# Assay: NCI-60 cell line screen, 48 h
SMILES,GI50,TGI
CSC1=Nc2c(c(C)c(C)n2COC(CO)CO)C2=NC(=O)C(C)N12 (configuration not stated),> 100 µM,> 100 µM
COc1cccc(CCNC(=O)Cc2ccccc2CCO)c1,–,> 100 µM
CCOC(=O)C1=CN(C)C=C(C(=O)OCC)C1c1cc(Br)c(OCC)c(OC)c1,> 100 µM,> 100 µM
N#Cc1c(N)nc(N2CCOCC2)c(C#N)c1-c1ccncc1,22.7 µM,> 100 µM

# System: A549 NSCLC
# Assay: NCI-60 cell line screen, 48 h
SMILES,GI50,TGI
CSC1=Nc2c(c(C)c(C)n2COC(CO)CO)C2=NC(=O)C(C)N12 (configuration not stated),> 100 µM,> 100 µM
COc1cccc(CCNC(=O)Cc2ccccc2CCO)c1,–,> 100 µM
CCOC(=O)C1=CN(C)C=C(C(=O)OCC)C1c1cc(Br)c(OCC)c(OC)c1,81.7 µM,> 100 µM
N#Cc1c(N)nc(N2CCOCC2)c(C#N)c1-c1ccncc1,> 100 µM,> 100 µM

# System: NCI-H226 lung
# Assay: NCI-60 cell line screen, 48 h
SMILES,GI50,TGI
CSC1=Nc2c(c(C)c(C)n2COC(CO)CO)C2=NC(=O)C(C)N12 (configuration not stated),> 100 µM,> 100 µM
COc1cccc(CCNC(=O)Cc2ccccc2CCO)c1,–,> 100 µM
CCOC(=O)C1=CN(C)C=C(C(=O)OCC)C1c1cc(Br)c(OCC)c(OC)c1,> 100 µM,> 100 µM
N#Cc1c(N)nc(N2CCOCC2)c(C#N)c1-c1ccncc1,75.9 µM,> 100 µM

# System: PC-3 prostate
# Assay: NCI-60 cell line screen, 48 h
SMILES,GI50,TGI
CSC1=Nc2c(c(C)c(C)n2COC(CO)CO)C2=NC(=O)C(C)N12 (configuration not stated),> 100 µM,> 100 µM
COc1cccc(CCNC(=O)Cc2ccccc2CCO)c1,–,> 100 µM
CCOC(=O)C1=CN(C)C=C(C(=O)OCC)C1c1cc(Br)c(OCC)c(OC)c1,8.29 µM,> 100 µM
N#Cc1c(N)nc(N2CCOCC2)c(C#N)c1-c1ccncc1,32 µM,> 100 µM

# System: HOP-92 NSCLC
# Assay: NCI-60 cell line screen, 48 h
SMILES,GI50,TGI
CSC1=Nc2c(c(C)c(C)n2COC(CO)CO)C2=NC(=O)C(C)N12 (configuration not stated),> 100 µM,> 100 µM
COc1cccc(CCNC(=O)Cc2ccccc2CCO)c1,–,> 100 µM
CCOC(=O)C1=CN(C)C=C(C(=O)OCC)C1c1cc(Br)c(OCC)c(OC)c1,20.5 µM,> 100 µM
N#Cc1c(N)nc(N2CCOCC2)c(C#N)c1-c1ccncc1,31.7 µM,> 100 µM

# System: SK-MEL-2 melanoma
# Assay: NCI-60 cell line screen, 48 h
SMILES,GI50,TGI
CSC1=Nc2c(c(C)c(C)n2COC(CO)CO)C2=NC(=O)C(C)N12 (configuration not stated),> 100 µM,> 100 µM
COc1cccc(CCNC(=O)Cc2ccccc2CCO)c1,–,> 100 µM
N#Cc1c(N)nc(N2CCOCC2)c(C#N)c1-c1ccncc1,> 100 µM,> 100 µM

# System: SN12C renal
# Assay: NCI-60 cell line screen, 48 h
SMILES,GI50,TGI
CSC1=Nc2c(c(C)c(C)n2COC(CO)CO)C2=NC(=O)C(C)N12 (configuration not stated),> 100 µM,> 100 µM
COc1cccc(CCNC(=O)Cc2ccccc2CCO)c1,–,> 100 µM
CCOC(=O)C1=CN(C)C=C(C(=O)OCC)C1c1cc(Br)c(OCC)c(OC)c1,> 100 µM,> 100 µM
N#Cc1c(N)nc(N2CCOCC2)c(C#N)c1-c1ccncc1,88.6 µM,> 100 µM

# System: HOP-62 NSCLC
# Assay: NCI-60 cell line screen, 48 h
SMILES,GI50,TGI
CSC1=Nc2c(c(C)c(C)n2COC(CO)CO)C2=NC(=O)C(C)N12 (configuration not stated),> 100 µM,> 100 µM
COc1cccc(CCNC(=O)Cc2ccccc2CCO)c1,–,> 100 µM
CCOC(=O)C1=CN(C)C=C(C(=O)OCC)C1c1cc(Br)c(OCC)c(OC)c1,> 100 µM,> 100 µM
N#Cc1c(N)nc(N2CCOCC2)c(C#N)c1-c1ccncc1,29.6 µM,> 100 µM

# System: COLO 205 colon
# Assay: NCI-60 cell line screen, 48 h
SMILES,GI50,TGI
CSC1=Nc2c(c(C)c(C)n2COC(CO)CO)C2=NC(=O)C(C)N12 (configuration not stated),> 100 µM,> 100 µM
COc1cccc(CCNC(=O)Cc2ccccc2CCO)c1,–,> 100 µM
CCOC(=O)C1=CN(C)C=C(C(=O)OCC)C1c1cc(Br)c(OCC)c(OC)c1,68.7 µM,> 100 µM
N#Cc1c(N)nc(N2CCOCC2)c(C#N)c1-c1ccncc1,> 100 µM,> 100 µM

# System: OVCAR-4 ovarian
# Assay: NCI-60 cell line screen, 48 h
SMILES,GI50,TGI
CSC1=Nc2c(c(C)c(C)n2COC(CO)CO)C2=NC(=O)C(C)N12 (configuration not stated),> 100 µM,> 100 µM
COc1cccc(CCNC(=O)Cc2ccccc2CCO)c1,–,> 100 µM

# — PubChem BioAssay (NCI)
